# Data as given in patent publication US10954252B1, “Inhibitors of human immunodeficiency virus replication” (ViiV HEALTHCARE UK (NO.5) LIMITED, priority 2017, dated 2021).
# Key:
# [1] = Compound cytotoxicity, XTT-based colorimetric assay; type: cell-based; conditions: human, uninfected MT2 cells
# Outline: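 CC50 from uninfected MT2 cells run under the antiviral-assay protocol without virus. Viability read on day 4 by XTT colorimetric assay.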
# [2] = tested on: recombinant NL4-3 virus (nef section replaced with Renilla luciferase gene) in MT-2 cells; assay: HIV cell culture assay (antiviral activity, luciferase readout); type: cell-based; conditions: MT-2 cells infected for 4-5 days with recombinant NL4-3 luciferase virus
# Outline: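 NL4-3 reporter virus carrying Renilla luciferase in place of part of nef, produced in 293T cells, was used to infect MT-2 cells for 4-5 days with serial compound dilutions. Luciferase activity was read with a live-cell substrate; EC50 derived from the median effect equation.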
Compound,"CC50 at 4 days ([1]; Table 1, day 4, XTT)","EC50 ([2]; Renilla, NL43, Table 1)","CC50 at 4 days ([1]; Table 1a, day 4, XTT)","EC50 ([2]; Renilla, NL43, Table 1a)",EC50 ([2]; Table 1a)
"COC(=O)c1cccc(-c2cc3[nH]ncc3nc2[C@H](Cc2cc(F)cc(F)c2)NC(=O)Cn2nc(C(F)F)c3c2C(F)(F)[C@@H]2C[C@H]32)c1 [Example 10.8, Methyl 3-(5-((S)-1-(2-((3bS,4aR)-3-(difluoromethyl)-5,5-difluoro-3b,4,4a,5-tetrahydro-1H-cyclopropa[3,4]cyclopenta[1,2-c]pyrazol-1-yl)acetamido)-2-(3,5-difluorophenyl)ethyl)-1H-pyrazolo[4,3-b]pyridin-6-yl)benzoate]",> 10000 nM,1200 nM,–,–,–
"COC(=O)c1cc(-c2cc3[nH]ncc3nc2[C@H](Cc2cc(F)cc(F)c2)NC(=O)Cn2nc(C(F)F)c3c2C(F)(F)[C@@H]2C[C@H]32)ccc1Cl [Example 10.9, Methyl 2-chloro-5-(5-((S)-1-(2-((3bS,4aR)-3-(difluoromethyl)-5,5-difluoro-3b,4,4a,5-tetrahydro-1H-cyclopropa[3,4]cyclopenta[1,2-c]pyrazol-1-yl)acetamido)-2-(3,5-difluorophenyl)ethyl)-1H-pyrazolo[4,3-b]pyridin-6-yl)benzoate]",8950 nM,1080 nM,–,–,–
"Cn1nc(NS(C)(=O)=O)c2c(Cl)ccc(-n3c([C@H](Cc4cc(F)cc(F)c4)NC(=O)Cn4nc(C(F)F)c5c4C(F)(F)[C@@H]4C[C@H]54)nc4ccc(F)cc4c3=O)c21 (single isomer, unassigned) [Example 21]",> 2700 nM,45 nM,–,–,–
"Cc1ccc(C)c2c(=O)n(-c3ccc(Cl)c4c(NS(C)(=O)=O)nn(C)c34)c([C@H](Cc3cc(F)cc(F)c3)NC(=O)Cn3nc(C(F)F)c4c3C(F)(F)[C@@H]3C[C@H]43)nc12 (single isomer, unassigned) [Example 68]",–,–,> 1000 nM,4.69 nM,–
"O=C(Cn1nc(C(F)F)c2c1C(F)(F)[C@@H]1C[C@H]21)N[C@@H](Cc1cc(F)cc(F)c1)c1nc2ncccc2c(=O)n1-c1ccc2c(c1)C(=O)NC2 [Example 31, 2-[(2S,4R)-9-(difluoromethyl)-5,5-difluoro-7,8-diazatricyclo[4.3.0.0^2,4]nona-1(6),8-dien-7-yl]-N-[(1S)-2-(3,5-difluorophenyl)-1-[4-oxo-3-(3-oxo-2,3-dihydro-1H-isoindol-5-yl)-3H,4H-pyrido[2,3-d]pyrimidin-2-yl]ethyl]acetamide]",–,–,> 10000 nM,0.99 nM,–
"Cn1nc(NS(C)(=O)=O)c2c(Cl)ccc(-n3c([C@H](Cc4cc(F)cc(F)c4)NC(=O)Cn4nc(C(F)F)c5c4C(F)(F)[C@@H]4C[C@H]54)nc4c(F)cc(F)cc4c3=O)c21 (single isomer, unassigned) [Example 74]",–,–,> 1000 nM,0.0513 nM,–
CC(C)c1ccc(-n2c([C@H](Cc3cc(F)cc(F)c3)NC(=O)Cc3c[nH]c4ccc(O)cc34)nc3ccccc3c2=O)cn1 [Example 10.33],> 10000 nM,49 nM,–,–,–
"CCOc1ccc2c(=O)n(-c3ccc(Cl)c4c(NS(C)(=O)=O)nn(C)c34)c([C@H](Cc3cc(F)cc(F)c3)NC(=O)Cn3ccc(C4CC4)n3)nc2n1 (single isomer, unassigned) [Example 59.1]",–,–,> 1000 nM,47 nM,–
COc1ccc2c(=O)n(-c3ccc(Cl)c4c(NS(C)(=O)=O)nn(C)c34)c(C(Cc3cc(F)cc(F)c3)NC(=O)Cn3nc(C(F)F)c4c3C(F)(F)[C@@H]3C[C@H]43)nc2c1F (some centres unmarked) [Example 75],–,–,> 1000 nM,109 nM,–
"COc1cccc2nc([C@H](Cc3cc(F)cc(F)c3)NC(=O)Cn3nc(C(F)F)c4c3C(F)(F)[C@@H]3C[C@H]43)n(-c3ccc(Cl)c4c(NS(C)(=O)=O)nn(C)c34)c(=O)c12 (mixture of isomers) [Example 169, N—((S)-1-(3-(4-chloro-1-methyl-3-(methylsulfonamido)-1H-indazol-7-yl)-5-methoxy-4-oxo-3,4-dihydroquinazolin-2-yl)-2-(3,5-difluorophenyl)ethyl)-2-((3bS,4aR)-3-(difluoromethyl)-5,5-difluoro-3b,4,4a,5-tetrahydro-1H-cyclopropa[3,4]cyclopenta[1,2-c]pyrazol-1-yl)acetamide]",–,–,> 1000 nM,–,119 nM
